In patent US6043037A, “Rapid method for measuring clastogenic fingerprints using fluorescence in situ hybridization” (The Regents of the University of California, priority 1997, dated 2000):

What was measured:
[1] = tested on: human lymphocytes; assay: S ratio measured by FISH in lymphocytes of humans exposed in vivo (benzene workers, tritium worker)
Text: Except where noted, all data analyzed were obtained using FISH. Identification and scoring of chromosome exchange aberrations using chromosome painting to generate additional data employed the methods of J. M. Lucas, et al., Rapid translocation frequency analysis in humans decades after exposure to ionizing radiation, Int'l. […] The chromosome exchange aberrations scored here were apparently simple (AS) exchange-type painting patterns.
The pattern resembles that of translocations. An incomplete apparently simple (AS) translocation pattern resembles that of an incomplete reciprocal translocation where the solid painted fragment contains one centromere. These aberrations are those translocations where reciprocity of the exchange event is not registered, either because the exchanged is actually incomplete, or because one of the exchanges segments involves the extreme, unpainted, terminal part of the arm.
Incomplete apparently simple translocations were recognized as bicolor chromosome derivatives, where the centromere resides on the unpainted segment.
Where possible, data were combined, and in some cases, additional scoring was performed to improve statistics. The blind scoring of coded photomicrographs was performed by technicians unfamiliar with the project goal. Photomicrographs were either reanalyzed from previous studies, or new photomicrographs were analyzed for this study.
The significance estimate for testing the equality of S-ratios between any two populations compared here was calculated by a likelihood ratio test using a Generalized Linear Model (GLM) on two nested hypotheses. The four outcomes were assumed to be distributed as independent Poisson random variates with a logarithmic link function. The null hypothesis included terms for offset, population and outcome type. The alternative included an additional interaction term. […]

[2] = tested on: human lymphocytes; assay: S ratio (apparently simple translocations / incompletes) measured by FISH after in vitro exposure to clastogenic agents; type: cell-based
Protocol: Identification and scoring of chromosome exchange aberrations was performed using FISH as described in Lucas, et al., Rapid translocation frequency analysis in humans decades after exposure to ionizing radiationi, Int'l. J. Radiat. Biol., 62:53-63 (1992). The scoring criteria used (apparently […] exchange-type painting pattern) was equivalent to those described in Simpson, et al. Estimating the true frequency of X-ray-induced complex chromosome exchanges using fluorescence in situ hybridization, Int'l. J. Radiat. Biol., 67:37-45 (1995). Only apparently simple translocations (ASTs) and dicentrics (ASD's) were used to calculate F ratios because equality for translocations and dicentrics has been shown only for AST's and ASD's mathematically (Lucas, et al., Int'l. J. Radiat. Biol., 69:145-153 (1996) and experimentally (Simpson, et al., Int'l. J. Radiat. Biol., 67:37-45 (1995); Kovacs et al., Radiation Research, 137:34-43. (1994). The translocation frequency measured by FISH was scaled to full-genome equivalents using the formula in Lucas, et al., Int'l. J. Radiat. Biol., 62:53-63 (1992), herein by reference. In brief, the formula relates the translocation frequency measured by FISH, Fp, to the genomic translocation frequencies, FG, through the fraction of the genome covered by the probes, fp, as follows:
Cells were irradiated with ^60 Co and ^137 Cs gamma rays in order to produce aberrations and detect the frequency of their occurance. Irradiation of cells with ^60 Co and ^137 Cs gamma rays has been described elsewhere. Lucas, J. N., et al., Rapid determination of human chromosome translocation frequency using a pair of chromosome-specific DNA probes, Int'l. J. Radiat. Biol., 56:35-44 (1989). […]
Except where noted, all data analyzed were obtained using FISH. […] The chromosome exchange aberrations scored here were apparently simple (AS) exchange-type painting patterns. Simpson, P. J. and Savage, J. R. K., Estimating the true frequency of X-ray-induced complex chromosome exchanges using fluorescence in situ hybridization, Int'l. […]

[3] = 20 benzene workers with history of benzene poisoning, 18,583 cells
[4] = in vitro exposure, 1800 cells (bleomycin), 5,809 cells (tritium, 0.6 Gy)

Compound | ASTs (apparently simple / complete translocations) [1, 3] | Inc (incomplete apparently simple translocations) [1, 3] | S ratio compared with low-LET radiation ([1]; benzene workers, vs low-LET radiation) | ASTs (apparently simple translocations) [2, 4] | Inc (incomplete apparently simple translocations) [2, 4] | S ratio compared with low-LET radiation ([2]; in vitro, vs low-LET radiation)
c1ccccc1 [Benzene, benzene] | 50 | 25 | significantly lower than those measured for low-LET radiation |  |  | 
bleomycin |  |  |  | 49 | 21 | significantly lower than those measured for low-LET radiation
